# Experimental data reported in publication PMC11676896, “Protective Action of Cannabidiol on Tiamulin Toxicity in Humans—In Vitro Study” (International Journal of Molecular Sciences, 2024).
# Where a name gives a salt, the structure may show the parent alone.
# How the values were obtained:
# [1] = system: HepG2 cells; assay: LDH leakage assay (cell membrane integrity); format: cell-based, human; conditions: HepG2, 72 h
# Experimental: (§1) The cytotoxic potential of the veterinary drug and its mixtures with cannabidiol at two non-toxic concentrations: 1.56 and 3.15 µg/mL, on the human SH-SY5Y, HepG2 and HEK 293 cell lines was assessed by decreased viability of the cells within five biochemical endpoints: mitochondrial activity and lysosomal activity (MTT assays, reducing the tetrazolium dye MTT 3-(4,5-dimethylthiazol-2-yl)-2,5-diphenyltetrazolium bromide and neutral red uptake (NRU) assays), total protein content (TPC assay), cellular membrane integrity (leakage lactate dehydrogenase (LDH) assay) and DNA synthesis (the bromodeoxyuridine/5-bromo-2′-deoxyuridine incorporation into the DNA cells (BrdU) assay) after 72 h exposition. Data obtained from the measurement of the optical density in these assays were transformed to percentages in relation to the negative control group (0.1% DMSO in medium), considered to be 100% for the MTT, NRU, TPC and BrdU assays and 0% for the LDH assay. 1% Trition-X 100 solution in medium was used as the positive controls, (Figure 3).
# (§2) The human neuroblastoma (SH-SY5H), hepatoma (HepG2) and kidney cells (HEK 293) cells were purchased from the American Type Culture Collection: ATCCCRL-2266,ATCC HB-8065 and ATCC CRL-1573, respectively. These cells were cultured in Minimum Essential Medium Eagle (MEME) (ATCC). The media were supplemented with 10% FBS, 1% L-glutamine (and 1% antibiotic solution (P4333 Sigma). The cells were maintained in 75 cm^2 cell culture flasks (NUNC) in a humidified incubator at 37 °C in an atmosphere of 5% CO2. The medium was refreshed every two or three days, and the cells were subcultured by 0.25% trypsin–0.02% EDTA after reaching 70–80% confluence. Single cell suspensions were prepared and adjusted to a density of 2 × 10^5 cell/mL^−1 (SH-SY5H), 1 × 10^5 cell/mL^−1 (HepG2) and 1 × 10^5 cell/mL^−1 (HEK-293). The cell suspension was transferred to 96-well plates (100 µL/well) or Lab-Tek chamber slides (8 wells) (Nunc) for staining and incubated for 24 h before the exposure to the studied compounds. Stock solutions of tiamulin fumarate and cannabidiol were prepared in DMSO and diluted with culture medium to obtain a concentration range from 1.56 to 200 µg/mL and 1.56 or 3.156 µg/mL, respectively. The selection of tiamulin concentrations was based on data from the literature and pilot studies. The final concentration of DMSO was 0.1% in the medium. The same final concentrations of the solvent and the 1% Trition-X 100 solution were used as the negative and positive controls, respectively. A total of 500 µM hydrogen peroxide (H2O2) in was used as the positive control in the DCFH assay. […] As a negative control, cultured cells were grown in the absence of studied compounds. Each concentration was tested in six replicates in three independent experiments. Cytotoxicity was assessed after 72 h of exposure of the cells to the compounds. The medium was not changed during the incubation time.
# (§3) The integrity of the plasma membrane was assessed through the test of lactate dehydrogenase (LDH) release, which was monitored using the commercially available Cytotoxicity Detection Kit (LDH) (Roche Diagnostics, Warsaw, Poland). The medium (100 µL/well) without cells was transferred into the corresponding wells of an optically clear 96-well flat bottom microplate, and 100 µL reaction mixture was added to each well. Then, the plates were incubated for 30 min at room temperature in darkness. After that time, 50 µL/well of 1 M HCl was added to stop the reaction. The absorbance was measured at 492 nm in a Synergy 2 Multi-Mode Microplate Reader (BiTek® Instruments Inc., Winooski, VT, USA) using a blank as a reference.
# (§4) This study was performed in three independent experiments. The obtained results are presented as mean values ± SD (standard deviation). […]
# [2] = system: HEK 293 cells; assay: LDH leakage assay (cell membrane integrity); format: cell-based, human
# Experimental: as §1, §2, §3, §4
# [3] = system: SH-SY5Y cells; assay: LDH leakage assay (cell membrane integrity); format: cell-based, human; conditions: 72 h
# Experimental: as §1, §2, §3, §4
# [4] = system: primary porcine hepatocytes; design: method as in PMID 10682383; conditions: 250 µM (123.5 µg/mL), 24 h of exposure; cited from earlier work
# [5] = system: HepG2 cells; assay: Hoechst 33342/propidium iodide double staining (apoptosis and necrosis); format: cell-based; conditions: HepG2, 72 h of incubation
# Source text: (§5) After assessing the cytotoxicity of tiamulin and its mixtures with CBD, cell death was examined using the Hoechst 33342/propidium iodide (PI) double staining test (Figure 6). The intensity of the blue color and the presence of fragmented, blue-stained cellular components indicated apoptotic cell death after Hoechst 33342 staining. Necrotic cell death was identified by red fluorescence after PI staining. […] Mixtures of tiamulin and CBD caused a decrease in both apoptotic and necrotic cell death.
# (§6) The analysis of type and level of cellular death in the control and tested cultures was evaluated using fluorochrome staining, Hoechst 33342 (Sigma, St. Louis, MO, USA) and propidium iodide (Sigma, St. Louis, MO, USA) mixed for apoptosis and necrosis evaluation. Using an Axiaert 200 M fluorescence micrscope (Zeiss, Obercochem, Germany), dead cells were analyzed morphologically. Cells with pink fluorescent nuclei were considered necrotic, whereas those with blue fluorescent nuclei (fragmented and/or with condensed chromatin) were considered apoptotic.
# [6] = system: SH-SY5Y cells; assay: as above; format: cell-based; conditions: 72 h of incubation
# Source text: as §5, §6
# [7] = system: HEK-293 cells; assay: as above; format: cell-based; conditions: HEK-293, 72 h of incubation
# Source text: as §5, §6
# [8] = system: HepG2 cells; assay: MTT assay (mitochondrial activity); format: cell-based, human; conditions: HepG2, 72 h
# Experimental: as §1, §2
# (§7) The metabolic activity of living cells was assessed by the measurement of the activity of dehydrogenases. After the incubation of the cells with the studied compounds, 10 μL of the MTT solution (5 mg/mL in PBS) was added to each well of 96-well plates and incubated. After 3 h, the MTT solution was removed, and the intracellular formazan crystals were dissolved in 100 µL DMSO. The plate was shaken for 15 min at room temperature and transferred to a Synergy 2 Multi-Mode Microplate Reader (BioTek® Instruments Inc., Winooski, VT, USA) to measure the absorbance at 570 nm, using a blank as a reference. Cytotoxicity was expressed as a percentage of the negative control (0.1% DMSO in medium).
# as §4
# [9] = system: HEK 293 cells; assay: MTT assay (mitochondrial activity); format: cell-based, human
# Experimental: as §1, §2, §7, §4
# [10] = system: SH-SY5Y cells; assay: MTT assay (mitochondrial activity); format: cell-based, human; conditions: 72 h
# Experimental: as §1, §2, §7, §4
# [11] = system: RAW264.7 macrophages; design: method as in PMID 35956888; conditions: cited from earlier work
# [12] = Homo sapiens, read-out: inhibited concentration (IC50), LDH
# [13] = Homo sapiens, read-out: inhibited concentration (IC50), MTT
smiles,measurement,setting,value
"C=C[C@]1(C)C[C@@H](OC(=O)CSCCN(CC)CC)[C@]2(C)[C@H](C)CC[C@]3(CCC(=O)[C@H]32)[C@@H](C)[C@@H]1O [T, tiamulin fumarate]",tiamulin concentration that caused disintegration of the cell membrane,[1],25 µg/mL
same,IC50,[1]; [12],39.5 ± 1.7 µg/mL
same,tiamulin concentration that caused disintegration of the cell membrane,"[2]; HEK-293, 72 h",25 µg/mL
same,IC50,"[2]; Homo sapiens, HEK293, 72 h, read-out: inhibited concentration (IC50), LDH",76.9 ± 2.3 µg/mL
same,tiamulin concentration that caused disintegration of the cell membrane,[3],25 µg/mL
same,IC50,[3]; [12],> 200 µg/mL
same,ROS production in the hepatocyte culture,[4],increased ROS production
same,apoptotic and necrotic cell death,[5],significant apoptotic and necrotic profiles
same,apoptotic and necrotic cell death,[6],slight increase in apoptotic and necrotic cells
same,apoptotic and necrotic cell death,[7],significant apoptotic and necrotic profiles
same,tiamulin concentration that inhibited mitochondrial activity,[8],12.5 µg/mL
same,IC50,[8]; [13],27.4 ± 1.3 µg/mL
same,tiamulin concentration that inhibited mitochondrial activity,"[9]; HEK-293, 72 h",25 µg/mL
same,IC50,"[9]; Homo sapiens, HEK293, 72 h, read-out: inhibited concentration (IC50), MTT",27.5 ± 0.8 µg/mL
same,tiamulin concentration that inhibited mitochondrial activity,[10]; significant (p ≤ 0.05) vs negative control,6.25 µg/mL
same,IC50,[10]; [13],30.2 ± 1.8 µg/mL
same,concentrations that did not result in 50% reduction in the macrophages' viability,[11],up to 20 μg/mL
same,concentrations with no significant cytotoxicity,[11],less than 5 μg/mL
